Measured values from patent EP3800188A1, “SUBSTITUTED PYRAZOLOPYRIMIDINES AS IRAK4 INHIBITORS” (Bayer AG, priority 2019, dated 2021).

Biological target: T1, human IRAK4 (Homo sapiens, UniProt Q9NWZ3)
T1 construct: GST (N); made in house; host or cells: baculovirus-infected Hi5 (BTI-TN-5B1-4) insect cells
T1 sequence (Q9NWZ3 1-460): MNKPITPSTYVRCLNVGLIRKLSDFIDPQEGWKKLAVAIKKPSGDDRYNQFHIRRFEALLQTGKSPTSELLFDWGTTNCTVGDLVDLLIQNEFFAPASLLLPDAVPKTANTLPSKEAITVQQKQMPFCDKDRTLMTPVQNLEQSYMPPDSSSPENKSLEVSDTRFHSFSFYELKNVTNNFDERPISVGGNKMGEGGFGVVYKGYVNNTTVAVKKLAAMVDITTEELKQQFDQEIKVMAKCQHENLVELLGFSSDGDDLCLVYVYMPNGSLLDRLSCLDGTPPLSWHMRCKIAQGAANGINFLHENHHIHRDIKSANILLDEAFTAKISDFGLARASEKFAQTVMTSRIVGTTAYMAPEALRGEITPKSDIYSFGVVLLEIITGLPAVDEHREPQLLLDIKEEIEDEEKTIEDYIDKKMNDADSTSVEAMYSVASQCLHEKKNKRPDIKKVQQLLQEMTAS
Test: Human IRAK4 kinase activity inhibition assay (IRAK4 TR-FRET assay)
Format: biochemical
Settings: 1 mM ATP, GST-human IRAK4, average or median values
Experimental: The IRAK4-inhibitory activity of the inventive substances was measured in the IRAK4 TR-FRET assay (TR-FRET = Time Resolved Fluorescence Resonance Energy Transfer) described hereinafter.
Recombinant fusion protein from N-terminal GST (glutathione S-transferase) and human IRAK4, expressed in baculovirus-infected insect cells (Hi5, BTI-TN-5B1-4, cell line purchased from Invitrogen, catalogue No. B855-02) and purified via affinity chromatography, was used as enzyme. The substrate used for the kinase reaction was the biotinylated peptide biotin-Ahx-[…] (C-terminus in amide form) which can be purchased, for example, from Biosyntan GmbH (Berlin-Buch). For the assay, 11 different concentrations in the range from 20 µM to 0.073 nM were prepared from a 2 mM DMSO solution of the test substance. 50 nl of the respective 100fold concentrated test compound solutions in DMSO were pipetted into a black low-volume 384-well microtitre plate or a black 1536-well microtiter plate (both Greiner Bio-One, Frickenhausen, Germany), 2 µl of a solution of IRAK4 in assay buffer [50 mM HEPES pH 7.5, 5mM MgCl2, 1.0 mM dithiothreitol, 30 µM activated sodium orthovanadate, 0.1% (w/v) of bovine gamma-globulin (BGG) 0.04% (v/v) nonidet-P40 (Sigma)] were added and the mixture was incubated for 15 min to allow prebinding of the substances to the enzyme prior to the kinase reaction. […] The concentration of the IRAK4 was adjusted to the respective activity of the enzyme and set such that the assay was carried out in the linear range. Typical concentrations were in the order of about 0.2 nM. The reaction was stopped by addition of 5 µl of a solution of TR-FRET detection reagents [0.1 µM streptavidin-XL665 (Cisbio Bioassays; France, catalogue No. 610SAXLG)] and 1.5 nM anti-phosphoserine antibody [Merck Millipore, "STK Antibody", catalogue No. 35-002] and 0.6 nM LANCE EU-W1024-labelled anti-mouse-IgG antibody (Perkin-Elmer, product No. AD0077; alternatively, it is possible to use a terbium cryptate-labelled anti-mouse-IgG antibody from Cisbio Bioassays) in aqueous EDTA solution (100 mM EDTA, 0.4 % [w/v] bovine serum albumin [BSA] in 25 mM HEPES pH 7.5). The resulting mixture was incubated at 22°C for 1 h to allow formation of a complex of the biotinylated phosphorylated substrate and the detection reagents. The amount of the phosphorylated substrate was then evaluated by measuring the resonance energy transfer from europium chelate-labelled anti-mouse-IgG antibody to streptavidin-XL665. To this end, the fluorescence emissions at 620 nm and 665 nm were measured after excitation at 350 nm in a TR-FRET measuring instrument, for example a Rubystar (BMG Labtechnologies, Offenburg, Germany) or a Viewlux (Perkin-Elmer). The ratio of the emissions at 665 nm and 622 nm was taken as a measure of the amount of phosphorylated substrate. The data were normalized (enzyme reaction without test substance = 0% inhibition; all other assay components but no enzyme = 100% inhibition).

SMILES | IC50
CC(C)(O)C1CCN(c2nc(NC3CCCS(=O)(=O)C3)nc3c2cnn3-c2cccc(C(F)(F)F)c2)CC1 (centres unmarked) [Example I-10, 2-(1-{6-[(1,1-dioxidotetrahydro-2H-thiopyran-3-yl)amino]-1-[3-(trifluoromethyl)phenyl]-1H-pyrazolo[3,4-d]pyrimidin-4-yl)piperidin-4-yl)propan-2-ol] | 131 nM
CC(C)(O)C1CCN(c2nc(N[C@H]3CCCNC3=O)nc3c2cnn3-c2cccc(C(F)(F)F)c2)CC1 [Example I-11-1, (3S)-3-({4-[4-(2-hydroxypropan-2-yl)piperidin-1-yl]-1-[3-(trifluoromethyl)phenyl]-1H-pyrazolo[3,4-d]pyrimidin-6-yl}amino)piperidin-2-one] | 139 nM
CC(C)(O)C1CCN(c2nc(N[C@@H]3CCCNC3=O)nc3c2cnn3-c2cccc(C(F)(F)F)c2)CC1 [Example I-11-2, (3R)-3-({4-[4-(2-hydroxypropan-2-yl)piperidin-1-yl]-1-[3-(trifluoromethyl)phenyl]-1H-pyrazolo[3,4-d]pyrimidin-6-yl}amino)piperidin-2-one] | 151 nM
CC(C)(O)C1CCN(c2nc(N[C@H]3CCNC3=O)nc3c2cnn3-c2cccc(C(F)(F)F)c2)CC1 [Example I-12, (3S)-3-({4-[4-(2-hydroxypropan-2-yl)piperidin-1-yl]-1-[3-(trifluoromethyl)phenyl]-1H-pyrazolo[3,4-d]pyrimidin-6-yl}amino)pyrrolidin-2-one] | 51.2 nM
CN1CC[C@@H](Nc2nc(N3CCC(C(C)(C)O)CC3)c3cnn(-c4cccc(C(F)(F)F)c4)c3n2)C1 [Example I-13-2, 2-[1-(6-{[(3R)-1-methylpyrrolidin-3-yl]amino}-1-[3-(trifluoromethyl)phenyl]-1H-pyrazolo[3,4-d]pyrimidin-4-yl)piperidin-4-yl]propan-2-ol] | 32.7 nM
CC(C)(O)C1CCN(c2nc(N[C@@H]3CCNC3=O)nc3c2cnn3-c2cccc(C(F)(F)F)c2)CC1 [Example I-15, (3R)-3-({4-[4-(2-hydroxypropan-2-yl)piperidin-1-yl]-1-[3-(trifluoromethyl)phenyl]-1H-pyrazolo[3,4-d]pyrimidin-6-yl}amino)pyrrolidin-2-one] | 62 nM
CC(C)(O)C1CCN(c2nc(N[C@H]3CCOC3)nc3c2cnn3-c2cccc(C(F)(F)F)c2)CC1 [Example I-16-1, 2-(1-{6-[(3S)-tetrahydrofuran-3-ylamino]-1-[3-(trifluoromethyl)phenyl]-1H-pyrazolo[3,4-d]pyrimidin-4-yl}piperidin-4-yl)propan-2-ol] | 19.4 nM
CC(C)(O)C1CCN(c2nc(N[C@@H]3CNC(=O)C3(C)C)nc3c2cnn3-c2cccc(C(F)(F)F)c2)CC1 [Example I-17, (4S)-4-({4-[4-(2-hydroxypropan-2-yl)piperidin-1-yl]-1-[3-(trifluoromethyl)phenyl]-1H-pyrazolo[3,4-d]pyrimidin-6-yl}amino)-3,3-dimethylpyrrolidin-2-one] | 442 nM
CCC1(O)CN(c2nc(N[C@H]3CCN(C)C3)nc3c2cnn3-c2cccc(C(F)(F)F)c2)C1 [Example I-18, 3-ethyl-1-(6-{[(3S)-1-methylpyrrolidin-3-yl]amino}-1-[3-(trifluoromethyl)phenyl]-1H-pyrazolo[3,4-d]pyrimidin-4-yl)azetidin-3-ol] | 18.4 nM
CCC1(O)CN(c2nc(NC3CCS(=O)(=O)CC3)nc3c2cnn3-c2cccc(C(F)(F)F)c2)C1 [Example I-19, 1-{6-[(1,1-dioxidotetrahydro-2H-thiopyran-4-yl)amino]-1-[3-(trifluoromethyl)phenyl]-1H-pyrazolo[3,4-d]pyrimidin-4-yl}-3-ethlazetidin-3-ol] | 27 nM
O=C1C[C@@H](Nc2nc(N3C[C@H](O)[C@@H](O)C3)c3cnn(-c4cccc(C(F)(F)F)c4)c3n2)CN1 [Example I-20-1, (4R)-4-({4-[(3S,4S)-3,4-dihydroxypyrrolidin-1-yl]-1-[3-(trifluoromethyl)phenyl]-1H-pyrazolo[3,4-d]pyrimidin-6-yl}amino)pyrrolidin-2-one] | 278 nM
O=C1C[C@H](Nc2nc(N3C[C@H](O)[C@@H](O)C3)c3cnn(-c4cccc(C(F)(F)F)c4)c3n2)CN1 [Example I-20-2, (4S)-4-({4-[(3S,4S)-3,4-dihydroxypyrrolidin-1-yl]-1-[3-(trifluoromethyl)phenyl]-1H-pyrazolo[3,4-d]pyrimidin-6-yl}amino)pyrrolidin-2-one] | 14.9 nM
O=C1C[C@H](Nc2nc(N3CC[C@@H](N4CCOCC4)C3)c3cnn(-c4cccc(C(F)(F)F)c4)c3n2)CN1 [Example I-21, (4S)-4-({4-[(3R)-3-(morpholin-4-yl)pyrrolidin-1-yl]-1-[3-(trifluoromethyl)phenyl]-1H-pyrazolo[3,4-d]pyrimidin-6-yl}amino)pyrrolidin-2-one] | 78 nM
CC(C)(O)CC1CCN(c2nc(N[C@@H]3CNC(=O)C3)nc3c2cnn3-c2cccc(C(F)(F)F)c2)CC1 [Example I-24, (4S)-4-({4-[4-(2-hydroxy-2-methylpropyl)piperidin-1-yl]-1-[3-(trifluoromethyl)phenyl]-1H-pyrazolo[3,4-d]pyrimidin-6-yl}amino)pyrrolidin-2-one] | 7.08 nM
CN1CC[C@@H](Nc2nc(N3CCC(CC(C)(C)O)CC3)c3cnn(-c4cccc(C(F)(F)F)c4)c3n2)C1 [Example I-25-1, 2-methyl-1-[1-(6-{[(3R)-1-methylpyrrolidin-3-yl]amino}-1-[3-(trifluoromethyl)phenyl]-1H-pyrazolo[3,4-d]pyrimidin-4-yl)piperidin-4-yl]propan-2-ol] | 40.3 nM
CN1CC[C@H](Nc2nc(N3CCC(CC(C)(C)O)CC3)c3cnn(-c4cccc(C(F)(F)F)c4)c3n2)C1 [Example I-25-2, 2-methyl-1-[1-(6-{[(3S)-1-methylpyrrolidin-3-yl]amino}-1-[3-(trifluoromethyl)phenyl]-1H-pyrazolo[3,4-d]pyrimidin-4-yl)piperidin-4-yl]propan-2-ol] | 12 nM
O=S1(=O)CCN(C2CN(c3nc(N[C@@H]4CCOC4)nc4c3cnn4-c3cccc(C(F)(F)F)c3)C2)CC1 [Example I-26-1, 4-[3-(1,1-dioxidothiomorpholin-4-yl)azetidin-1-yl]-N-[(3R)-tetrahydrofuran-3-yl]-1-[3-(trifluoromethyl)phenyl]-1H-pyrazolo[3,4-d]pyrimidin-6-amine] | 37.3 nM
O=S1(=O)CCN(C2CN(c3nc(N[C@H]4CCOC4)nc4c3cnn4-c3cccc(C(F)(F)F)c3)C2)CC1 [Example I-26-2, 4-[3-(1,1-dioxidothiomorpholin-4-yl)azetidin-1-yl]-N-[(3S)-tetrahydrofuran-3-yl]-1-[3-(trifluoromethyl)phenyl]-1H-pyrazolo[3,4-d]pyrimidin-6-amine] | 57.8 nM
O=C1C[C@H](Nc2nc(N3CCOCC3)c3cnn(-c4cccc(C(F)(F)F)c4)c3n2)CN1 [Example I-28, (4S)-4-({4-(morpholin-4-yl)-1-[3-(trifluoromethyl)phenyl]-1H-pyrazolo[3,4-d]pyrimidin-6-yl}amino)pyrrolidin-2-one] | 23.9 nM
O=C1C[C@H](Nc2nc(N3CC(O)C3)c3cnn(-c4cccc(C(F)(F)F)c4)c3n2)CN1 [Example I-32, (4S)-4-({4-(3-hydroxyazetidin-1-yl)-1-[3-(trifluoromethyl)phenyl]-1H-pyrazolo[3,4-d]pyrimidin-6-yl}amino)pyrrolidin-2-one] | 28.7 nM
